Experiments:
α-synuclein = assay: Expression of α-synuclein in neuronal cultures (cells P19); type: cell-based; details: untreated cells 100%
COX-2 = assay: Expression of COX-2 in LPS-stimulated monocytes in culture; type: cell-based, human; details: positive control with LPS 100%
Excerpt: FIG. 5A also presents a drawing showing the COX-2/COX-1 relationship as % of control (Y axis) for the following compounds (X-axis): OOA (2-hydroxy-oleic acid), OLA (182A1), OALA (183A1), OGLA (183A2), OARA (204A1), OEPA (205A1), ODHA (226A1). […] The reduction of this factor is directly related to the anti-inflammatory medication. The compounds are the same as in the left pane.
(§1) Cyclooxygenase (COX) is an enzyme that can bind to membranes, taking certain lipids from there and catalyze its conversion into molecules that can have inflammatory activity. The binding of this enzyme to membrane lipids is due in part to the membrane lipid structure. The increased activity of COX 1 and 2 isoforms has been associated with the etiopathology of a number of inflammatory diseases by […] arachidonic acid metabolism to produce pro-inflammatory lipid mediators. The D-PUFA compounds of the present invention produced a series of cellular signals that alter the metabolism of arachidonic acid and, as a result, they inhibit the activity and expression of COX in monocytes in culture (Table 14 and FIG. 5A). […] For this purpose, C57BL6/J mice were treated with the various derivatives (200 mg/kg, p.o.,) after inducing an inflammatory reaction in them by intraperitoneal injection of 20 μg of bacterial lipopolysaccharide (LPS).
Inhibition of COX-2 expression in monocytes. Percentages of inhibition (compared to the positive control in the presence of LPS, 100%) of COX-2 protein levels (expression) by the various fatty acid derivatives.

P19 cells = assay: NMDA-induced neuronal death in P19 cells; type: cell-based; details: NMDA alone 100% death, control without NMDA 0%; negative values = proliferation
[1] = system: brain cancer cell (glioma) U118; assay: Brain cancer (glioma) U118 cell growth; type: cell-based; details: 72 hours of incubation
In short: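 Human cells in RPMI 1640 with 10% FBS at 37 °C, 5% CO2, exposed to D-PUFAs or PUFAs, then counted. glioma U118 cells run under the same conditions; values are means of three independent experiments.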

Jurkat cells = assay: Human leukaemia (Jurkat cells); type: cell-based; details: 72 hours
Protocol: (§2) Overall, it may be seen that the series of compounds A and B are the best, so the effectiveness of these series against the development of leukaemia and liver cancer (Tables 9 and 10) was tested.

lung cancer cells A549 = assay: Growth of lung cancer cells A549 (IC50); type: cell-based, human; details: 72 hours of incubation
In short: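 Human A549 lung cancer cells in RPMI 1640 with 10% FBS at 37 °C, 5% CO2, exposed to D-PUFAs or PUFAs, then counted. values are means of three independent experiments.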

[2] = Serum cholesterol, triglycerides and glucose in SHR rats (colorimetric); type: in vivo, rat; details: 200 mg/kg daily p.o., 28 days, untreated rats 100%
Protocol: In a separate experimental series, SHR rats were treated with various compounds of the present invention (200 mg/kg daily, 28 days, p.o.) and the levels of cholesterol, triglycerides and glucose in serum were measured by colorimetric methods. It was observed that these compounds induce significant (and in many cases marked) reductions in the levels of these metabolites (Table 16).
Values are expressed as percent, and in untreated (control) rats values were always considered as 100%.

[3] = system: heterotrimeric Gi1 protein; assay: Binding of heterotrimeric Gi1 protein to model membranes (centrifugation, immunoblotting); details: phosphatidylcholine:phosphatidylethanolamine (6:4) 2 mM phospholipid, 0.1 μM D-PUFA; control 100 ± 5; in % (unit assumed)
Excerpt: The net result is a regulation of cell signalling leading to the reversal of various pathological processes, as shown later. […] The Control is a sample of model membranes in the absence of fatty acids.

3T3 cells = assay: Percentage of total PUFAs in membranes of 3T3 cells treated with fatty acids (gas chromatography); type: cell-based; details: 100 μM, 48 hours, mean ± SEM of four measures, control 32.4 ± 2.1
Excerpt: To perform these experiments, membranes were extracted and total fatty acids were obtained by hydrolysis in basic medium. Methanolic bases of these fatty acids were quantified by gas chromatography. The data shown are averages of four independent measures of PUFA's mass divided by the total fatty acids and expressed as a percentage. It is also shown is standard error of the mean.
The control corresponds to a culture without the presence of added natural or synthetic fatty acids. Cells in their natural form present PUFAs in their membranes, but the presence in the medium of the D-PUFA molecules of the invention increases these levels of PUFAs in the cell membrane.

[4] = system: apolipoprotein AI (apoA-I); assay: Levels of apoA-I in SHR rats (RT-PCR); type: in vivo, rat; details: 200 mg/kg day p.o., 30 days, before treatment 100%
Protocol: (§3) In a separate experimental series, it was studied the effect of D-PUFA molecules of the present invention on blood pressure of SHR rats. In these animals both, blood pressure and levels of apolipoprotein AI (apoA-I) were measured. For these experiments Spontaneously Hypertensive Rats (SHR) were treated for 30 days with vehicle (water control) or compounds of the invention (200 mg/kg day, p.o.). At the end of this period, the animals' blood pressure and serum levels of apoA-I were measured. […] For these experiments, non-invasive methods for determining blood pressure (cuff-tail method) and gene expression for apoA-I (RT-PCR) described in the literature (Terés et al., 2008) were used. The usefulness of the molecules of the present invention for the treatment of cardiovascular diseases is reinforced by its capacity for reducing the levels of serum cholesterol and triglycerides (see below).
(§4) The average values of SHR before treatment were 214 mmHg and 100% respectively.

[5] = system: Spontaneously Hypertensive Rats (SHR); assay: Blood pressure of SHR rats (cuff-tail method); type: in vivo, rat; details: 200 mg/kg day p.o., 30 days, before treatment 214 mmHg
Protocol: as §3, §4

[6] = Lamellar-to-hexagonal (HII) transition temperature in DEPE model membranes by Differential Scanning Calorimetry; type: physicochemical; details: for Transition temperature (lamellar to HII): DEPE (4 mM), 200 μM compound, series A, control 64.5; for Temperature of lamellar-to-hexagonal transition: DEPE membranes, DEPE:D-PUFA 10:1 (mol:mol)
Protocol: The transition temperature was determined by Differential Scanning Calorimetry. The proportion DEPE:D-PUFA was 10:1 (mol:mol) in all cases. Lamellar-to-hexagonal transition is an important parameter that reflects relevant signalling properties of cell membranes. […] When this occurs, certain peripheral membrane proteins (such as G proteins, protein kinase C or Ras protein) can more easily bind to the membrane, while others have a poor interaction (e.g., the Gα-protein), so changes in the HII transition temperature are important in regulating cellular functions related to health and human therapy (Escriba et al., 1995, Vogler et al., 2004; Escriba, 2006).
Control values correspond to model membranes in the absence of fatty acids. The reduction in HII transition temperature obtained by using the D-PUFA of the invention indicates an increased induction of membrane discontinuities, generating anchoring sites in the membrane for peripheral proteins and leads to better regulation of cell signalling and, therefore, greater effectiveness in the control of certain diseases.

[7] = system: breast cancer cells MDA-MB-231; assay: Growth of breast cancer cells MDA-MB-231; type: cell-based; details: 72 hours of incubation
In short: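 Human cancer cells in RPMI 1640 with 10% FBS at 37 °C, 5% CO2, exposed to D-PUFAs or PUFAs, then counted. Breast MDA-MB-231 cells run under the same conditions; values are means of three independent experiments.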

HepG2 cells = assay: Liver cancer (HepG2 cells); type: cell-based; details: Homo sapiens, HepG2; 72 hours
Protocol: These charts show the antitumor efficacy of the compounds of this invention against the growth of breast cancer cells, brain (glioma), and lung cancer. […] The other experimental conditions are identical to those described in the preceding paragraph.
as §2

TNF-α = assay: Production of TNF-α in serum of LPS-injected C57BL6/J mice; type: in vivo; details: LPS 20 μg i.p. (100%), 200 mg/kg p.o.
Excerpt: as §1

| Compound | Expression of α-synuclein (α-synuclein) [%] | COX-2 protein levels (expression), percentages of inhibition compared to positive control (COX-2) [%] | Neuronal death (P19 cells) after treatment with NMDA (P19 cells) [%] | IC50 [1] [µM] | Cholesterol in serum (top number) [2] [%] | Glucose in serum (bottom number) [2] [%] | Triglycerides in serum (central number) [2] [%] | Levels of apoA-I [4] [%] | Blood pressure [5] [mm Hg] | Production of TNF-α in serum (TNF-α) [%] | IC50 (Jurkat cells) [µM] | IC50 (lung cancer cells A549) [µM] | Temperature of lamellar-to-hexagonal transition [6] [°C] | IC50 [7] [µM] | other results |
| --- | --- | --- | --- | --- | --- | --- | --- | --- | --- | --- | --- | --- | --- | --- | --- |
| CCCCCC=CCC=CCCCCCCC(O)C(=O)O (stereo not shown) [182A1, 2-hydroxy-9,12-octadecadienoic acid] | 50 | 24 | −60 | 197 | 78 | 84 | 91 | 146 | 204 | 64 |  |  |  |  | IC50 (Jurkat cells; Homo sapiens, Jurkat): 713 µM; IC50 (lung cancer cells A549; Homo sapiens, A549): 944 µM; G protein binding [3]: 312 ± 12; Percentage of total PUFA (3T3 cells): 42.3 ± 3.1%; Transition temperature (lamellar to HII) [6]: 51.8 °C; IC50 ([7]; Homo sapiens, MDA-MB-231): 388 µM; IC50 (HepG2 cells): 212 µM |
| CCCCCC=CCC=CCCCCCCC(O)C(=O)[O-].[Na+] (stereo not shown) [182B1] | 61 | 39 | −62 | 198 | 89 | 87 | 72 | 178 | 201 | 79 | 377 | 196 | 52.1 | 379 |  |
| CCC=CCC=CCC=CCCCCCCC(O)C(=O)O (stereo not shown) [183A1, 2-hydroxy-9,12,15-octadecatrienoic acid] | 45 | 20 | −55 | 397 | 76 | 87 | 81 | 134 | 201 | 70 |  |  |  |  | IC50 (Jurkat cells; Homo sapiens, Jurkat): 198 µM; IC50 (lung cancer cells A549; Homo sapiens, A549): 200 µM; G protein binding [3]: 328 ± 9; Percentage of total PUFA (3T3 cells): 42.8 ± 2.2%; Transition temperature (lamellar to HII) [6]: 51.6 °C; IC50 ([7]; Homo sapiens, MDA-MB-231): 380 µM; IC50 (HepG2 cells): 380 µM |
| CCCCCC=CCC=CCC=CCCCC(O)C(=O)[O-].[Na+] (stereo not shown) [183B2] | 38 | 29 | −66 | 377 | 77 | 86 | 76 | 285 | 182 | 78 | 184 | 197 | 51 | 156 |  |
| CCCCCC=CCC=CCC=CCC=CCCC(O)C(=O)[O-].[Na+] (stereo not shown) [204B1] | 36 | 28 | −71 | 396 | 71 | 89 | 69 | 144 | 202 | 26 | 104 | 413 | 50.2 | 345 |  |
| CCC=CCC=CCC=CCC=CCC=CCCC(C)C(=O)[O-].[Na+] (stereo not shown) [205L1] | 67 | 53 | −35 | 435 | 79 | 85 | 78 | 376 | 198 | 76 |  | 362 |  | 253 |  |
| CCC=CCC=CCC=CCC=CCC=CCCC(OC=O)C(=O)OCC (stereo not shown) [205V1] | 81 | 76 | −27 | 510 | 85 | 84 | 79 | 315 | 191 | 84 |  | 325 |  | 298 |  |
